What was measured:
FGFR3 = assay: KINOMEscan; conditions: 50000 nM
Experimental: KINOMEscan™ selectivity screen
(§5) The assay was perfor med at DiscoveRx Corporation according the methods published previously5. Briefly, Kinase-tagged T7 phage strains were grown in parallel in an E. coli host derived from the BL21 strain. E. coli were grown to log-phase and infected with T7 phage from a frozen stock and incubated with shaking at 32°C until lysis (90-150 minutes). The kinases were produced in HEK-293 cells and subsequently tagged with DNA for qPCR detection. Streptavidin-coated magnetic beads were treated with biotinylated small molecule ligands to generate affinity resins for kinase
(§6) inhibitor or DMSO control was performed in polypropylene 384-well plates for 1 hr at room temperature. After wash with PBS buffer containing 0.05% Tween 20, the beads were incubated in elution buffer (PBS containing 0.05 % Tween 20 and 0.5 μM non-biotinylated affinity ligand) for 30 minutes at room temperature. The kinase concentration in the eluates was measured by qPCR.

MUSK = assay: KINOMEscan; conditions: 50000 nM
Experimental: KINOMEscan™ selectivity screen
(§7) The kinases were produced in HEK-293 cells and subsequently tagged with DNA for qPCR detection. Streptavidin-coated magnetic beads were treated with biotinylated small molecule ligands to generate affinity resins for kinase
as §6

PLK1 = assay: KINOMEscan; conditions: 50000 nM
Experimental: KINOMEscan™ selectivity screen
as §5, §6

PIK4CB = assay: KINOMEscan; conditions: 50000 nM
Experimental: KINOMEscan™ selectivity screen
as §5, §6

EPHB1 = assay: KINOMEscan; conditions: 50000 nM
Experimental: KINOMEscan™ selectivity screen
(§8) Briefly, Kinase-tagged T7 phage strains were grown in parallel in an E. coli host derived from the BL21 strain. E. coli were grown to log-phase and infected with T7 phage from a frozen stock and incubated with shaking at 32°C until lysis (90-150 minutes). The kinases were produced in HEK-293 cells and subsequently tagged with DNA for qPCR detection. Streptavidin-coated magnetic beads were treated with biotinylated small molecule ligands to generate affinity resins for kinase
as §6

AKT3 = assay: KINOMEscan; conditions: 50000 nM
Experimental: KINOMEscan™ selectivity screen
as §5, §6

PIK3CB = assay: KINOMEscan; conditions: 50000 nM
Experimental: KINOMEscan™ selectivity screen
as §8, §6

CDK4-cyclinD1 = assay: KINOMEscan; conditions: 50000 nM
Experimental: KINOMEscan™ selectivity screen
as §5, §6

CIT = assay: KINOMEscan; conditions: 50000 nM
Experimental: KINOMEscan™ selectivity screen
as §7, §6

CSNK2A2 = assay: KINOMEscan; conditions: 50000 nM
Experimental: KINOMEscan™ selectivity screen
as §8, §6

ABL1-phosphorylated = assay: KINOMEscan; conditions: 50000 nM
Experimental: KINOMEscan™ selectivity screen
as §5, §6

TEC = assay: KINOMEscan; conditions: 50000 nM
Experimental: KINOMEscan™ selectivity screen
as §8, §6

TTK = assay: KINOMEscan; conditions: 50000 nM
Experimental: KINOMEscan™ selectivity screen
as §8, §6

SGK1 = assay: Western blot of SGK1 S422 phosphorylation; type: cell-based, Mouse; conditions: all concentrations tested including 80 µM
Experimental: (§1) Neuro 2A cells were seeded in 12-well plates in DMEM containing 5% FBS for 24 hr.
(§2) After overnight serum starvation (in 0% FBS DMEM), cells were incubated for 30 min at 37 °C with G7 or LY294002 or Torin 1 (Sigma Aldrich) at various concentrations, or DMSO control. IGF-1 was added to each well at a final concentration of 100 ng/mL. After 30-min incubation cells were washed with cold PBS and lysed with 50 µL lysis buffer containing 1% Triton X-100 and protease/phosphatase inhibitors (Cell Signaling Technology) or RIPA buffer (Santa Cruz Biotech). Samples were electrophoresed in 4–12% Bis-Tris gels (Life Technologies) at 150 V using MOPS SDS running buffer. Proteins were transferred electrophoretically to a PVDF or nitrocellulose membrane. For detection of cleaved […]
(§3) caspase 3 a Trans-Blot Turbo Transfer System (Bio-Rad, 25 V for 25 min) with PVDF membrane were used. […]
(§4) anti- GAPDH (14C10) antibody (#2118) (all antibodies were from Cell Signaling Technology unless indicated, 1:1000 dilution was used) at 4°C overnight, washed three times with TBS-T, then incubated with peroxidase-conjugated secondary antibody (Sigma-Aldrich) for 1 hr at room temperature. […] Band intensity was quantitated using Kodak 1D imaging analysis software. […]

LNCaP cells = assay: MTS cell proliferation assay; type: cell-based; conditions: 1 day, 40% confluent
Experimental: Neuro 2A cells or NIH/3T3 cells (ATCC) were seeded at various confluency in a 96-well plate in 100 µL DMEM containing 5% FBS or 10% FBS with 1% penicillin streptomucin, respectively, at 37 °C in a 5% CO2 and 95% humidity incubator for 18 hr. To each well 1 µL inhibitor with various concentrations or DMSO was added. The final concentrations of the tested inhibitors were 0, 5, 10, 20, 40 and 80 µM for G7 and LY, and 0, 5, 10, 20, 40 and 80 nM for Torin1, based on their respective IC50 values (~µM for G7 and LY and ~ nM for Torin 1). After 24 hr, 20 µL of CellTiter 96® AQueous One Solution Reagent (Promega) were added. The plate was placed in the incubator for 2 h and absorbance at 490 nm was measured with a Synergy HT Microplate Reader (Bio-Tek).
Fig. S8. Effect of G7 on proliferation of LNCaP cells. Cells that were 40% confluent in RPMI-1640 medium containing 10% FBS were treated with inhibitors for 1 day and subjected to MTS assays. *, µM for both G7 and LY and nM for Torin1. Data represent means ± SEM (n=3). G7, 4-phenylquinolin-2(1H)-one, LY, LY294002.

[1] = test system: RSK2(Kin.Dom.2-C-terminal); assay: KINOMEscan; conditions: 50000 nM
Experimental: KINOMEscan™ selectivity screen
as §5, §6

[2] = test system: RSK1(Kin.Dom.1-N-terminal); assay: KINOMEscan; conditions: 50000 nM
Experimental: KINOMEscan™ selectivity screen
as §8, §6

PKC = assay: Western blot of PKC phosphorylation; type: cell-based, Mouse; conditions: Neuro 2A cells
Experimental: as §1, §2, §3, §4

PIP5K2B = assay: KINOMEscan; conditions: 50000 nM
Experimental: KINOMEscan™ selectivity screen
as §5, §6

DYRK2 = assay: KINOMEscan; conditions: 50000 nM
Experimental: KINOMEscan™ selectivity screen
as §5, §6

RIOK3 = assay: KINOMEscan; conditions: 50000 nM
Experimental: KINOMEscan™ selectivity screen
as §5, §6

TAOK1 = assay: KINOMEscan; conditions: 50000 nM
Experimental: KINOMEscan™ selectivity screen
as §5, §6

ZAK = assay: KINOMEscan; conditions: 50000 nM
Experimental: KINOMEscan™ selectivity screen
as §8, §6

NLK = assay: KINOMEscan; conditions: 50000 nM
Experimental: KINOMEscan™ selectivity screen
as §5, §6

BUB1 = assay: KINOMEscan; conditions: 50000 nM
Experimental: KINOMEscan™ selectivity screen
as §5, §6

[3] = test system: ABL1(T315I)-nonphosphorylated; assay: KINOMEscan; conditions: 50000 nM
Experimental: KINOMEscan™ selectivity screen
as §8, §6

LKB1 = assay: KINOMEscan; conditions: 50000 nM
Experimental: KINOMEscan™ selectivity screen
The assay was perfor med at DiscoveRx Corporation according the methods published previously5. […] The kinases were produced in HEK-293 cells and subsequently tagged with DNA for qPCR detection. Streptavidin-coated magnetic beads were treated with biotinylated small molecule ligands to generate affinity resins for kinase
as §6

NEK7 = assay: KINOMEscan; conditions: 50000 nM
Experimental: KINOMEscan™ selectivity screen
as §5, §6

TAOK3 = assay: KINOMEscan; conditions: 50000 nM
Experimental: KINOMEscan™ selectivity screen
as §5, §6

SMILES: Oc1cc(-c2ccccc2)c2ccccc2n1 [G7, 4-phenylquinolin-2(1H)-one]
- Percent Control (FGFR3): 83%
- Percent Control (MUSK): 75%
- Percent Control (PLK1): 100%
- Percent Control (PIK4CB): 64%
- Percent Control (EPHB1): 91%
- Percent Control (AKT3): 100%
- Percent Control (PIK3CB): 69%
- Percent Control (CDK4-cyclinD1): 95%
- Percent Control (CIT): 74%
- Percent Control (CSNK2A2): 70%
- Percent Control (ABL1-phosphorylated): 73%
- Percent Control (TEC): 71%
- Percent Control (TTK): 24%
- S422 phosphorylation of SGK1 (SGK1): did not inhibit
- proliferation of LNCaP prostate cancer cells (LNCaP cells): inhibited the proliferation
- Percent Control [1]: 100%
- Percent Control [2]: 23%
- phosphorylation (activation status) of PKC (PKC): did not alter
- Percent Control (PIP5K2B): 100%
- Percent Control (DYRK2): 72%
- Percent Control (RIOK3): 58%
- Percent Control (TAOK1): 95%
- Percent Control (ZAK): 100%
- Percent Control (NLK): 82%
- Percent Control (BUB1): 85%
- Percent Control [3]: 86%
- Percent Control (LKB1): 96%
- Percent Control (NEK7): 78%
- Percent Control (TAOK3): 100%
